In DBAASP:
In brackets after ≈: the same amount, converted by molar mass. Several values for one entry are separate records, joined by “and”; a condition that tells them apart may be missing. Identical values can stand only once.

Tests used:
Assay in all cases: ≥ marks a high value that may be exact or a test limit, other limits are often not marked, values filed in µg/mL are converted to µM
[1] = system: Saccharomyces cerevisiae CGMCC 2.3973
[2] = system: Pseudomonas aeruginosa ATCC 27853
[3] = system: Staphylococcus aureus ATCC 25923
[4] = system: Bacillus subtilis ATCC 6633
[5] = system: Escherichia coli ATCC 25922
Escherichia coli D31 = system: Escherichia coli D31
[6] = system: Pseudomonas aeruginosa ATCC 10145
[7] = system: Klebsiella pneumoniae ATCC 700603
[8] = system: Staphylococcus aureus ATCC 27660
[9] = system: Staphylococcus aureus E4049
[10] = system: Staphylococcus aureus 3968
[11] = system: Staphylococcus aureus ATCC 9144
[12] = system: Staphylococcus aureus 5118
[13] = system: Staphylococcus aureus CCARM 3089
[14] = system: Bacillus subtilis KCTC 3068
[15] = system: Staphylococcus aureus CCARM 3095
[16] = system: Salmonella typhimurium KCTC 1926
[17] = system: Pseudomonas aeruginosa KCTC 1637
[18] = system: Escherichia coli KCTC 1682
[19] = system: Pseudomonas aeruginosa CCARM 2095
[20] = system: Enterococcus faecium ATCC 51559
[21] = system: Pseudomonas aeruginosa CCARM 2109
[22] = system: Staphylococcus epidermidis KCTC 1917
[23] = system: Staphylococcus aureus CCARM 3090
[24] = system: Trichosporon beigelii KCTC 7707
[25] = system: Escherichia coli CCARM 1229
[26] = system: Staphylococcus aureus CCARM 3518
[27] = system: Bacillus subtilis KCTC 1998
[28] = system: Listeria monocytogenes KCTC 3710
[29] = system: Pseudomonas aeruginosa 4007
[30] = system: Candida albicans KCTC 7270
[31] = system: Pseudomonas aeruginosa 4891
[32] = system: Escherichia coli CCARM 1238
[33] = system: Staphylococcus aureus LAC
[34] = system: Erwinia amylovora PMV 6076
[35] = system: Xanthomonas arboricola pv. pruni CFBP 5563
[36] = system: Pseudomonas syringae pv. syringae EPS 94
[37] = system: Xanthomonas fragariae Xf349-9A
[38] = system: Xanthomonas campestris pv. Vesicatoria 2133-2
[39] = system: Pseudomonas syringae pv. actinidiae Psa3700.1.1

Structure (SMILES): CC[C@H](C)[C@H](NC(=O)CNC(=O)[C@@H](NC(=O)[C@H](CCCCN)NC(=O)[C@@H](NC(=O)[C@H](CCCCN)NC(=O)[C@H](CCCCN)NC(=O)[C@H](CC(=O)O)NC(=O)CNC(=O)[C@H](C)N)[C@@H](C)CC)[C@@H](C)CC)C(=O)N[C@@H](CC(N)=O)C(=O)NCC(=O)N[C@@H](Cc1ccccc1)C(=O)NCC(=O)N[C@@H](CCCN=C(N)N)C(=O)N[C@H](C(=O)NCC(=O)N[C@@H](CCCN=C(N)N)C(=O)N[C@@H](CC(C)C)C(=O)O)[C@@H](C)CC [AGDKKIKIGINGFGRIGRL]
- MIC [1]: ≥ 254 µM
- MIC [2]: > 254 µM
- MIC [3]: 254 µM (≈ 512 µg/mL)
- MIC [4]: ≥ 254 µM
- MIC [5]: 31.8 µM (≈ 64 µg/mL)

Structure (SMILES): CC[C@H](C)[C@H](NC(=O)CNC(=O)[C@H](CCCCN)NC(=O)[C@H](Cc1ccccc1)NC(=O)[C@H](CC(C)C)NC(=O)[C@H](CCCCN)NC(=O)[C@H](CCCCN)NC(=O)[C@H](C)NC(=O)[C@H](CCCCN)NC(=O)[C@H](CCCCN)NC(=O)[C@H](Cc1c[nH]c2ccccc12)NC(=O)CNC(=O)[C@H](CCCCN)NC(=O)[C@H](C)NC(=O)[C@H](Cc1ccccc1)NC(=O)[C@@H](NC(=O)[C@H](CCCCN)NC(=O)[C@@H](NC(=O)[C@H](CC(C)C)NC(=O)[C@H](CCCCN)NC(=O)[C@@H](N)CCCCN)[C@@H](C)CC)C(C)C)C(=O)NCC(=O)O [KKLIKVFAKGWKKAKKLFKGIG]
- MIC (Escherichia coli D31): 0.94 µM (≈ 2.37 µg/mL)
- MIC [6]: 1.88 µM (≈ 4.73 µg/mL)
- MIC [7]: 1.88 µM (≈ 4.73 µg/mL)
- MIC [8]: 0.47 µM (≈ 1.18 µg/mL)

Structure (SMILES): CSCC[C@H](NC(=O)[C@H](C)NC(=O)[C@H](CC(C)C)NC(=O)[C@@H](N)CCCCN)C(=O)N[C@@H](CO)C(=O)N[C@@H](CCSC)C(=O)N[C@@H](CO)C(=O)N[C@@H](Cc1ccccc1)C(=O)N[C@@H](CC(N)=O)C(=O)N[C@@H](Cc1ccccc1)C(=O)N[C@H](C(=O)N[C@@H](Cc1ccccc1)C(=O)N[C@@H](Cc1ccc(O)cc1)C(=O)N[C@@H](Cc1ccccc1)C(=O)N[C@@H](CCSC)C(=O)N[C@H](C(=O)N[C@@H](CC(N)=O)C(=O)N[C@@H](Cc1ccccc1)C(=O)N[C@@H](CC(=O)O)C(=O)N[C@@H](CC(=O)O)C(=O)O)C(C)C)C(C)C [KLAMSMSFNFVFYFMVNFDD]
- MIC [9]: 15.5 µM (≈ 38 µg/mL)
- MIC [10]: ≥ 250 µM
- MIC [11]: ≥ 125 µM
- MIC [12]: ≥ 125 µM

Structure (SMILES): CC[C@H](C)[C@H](NC(=O)[C@H](Cc1ccccc1)NC(=O)[C@H](CCCN=C(N)N)NC(=O)[C@@H](N)CCCCN)C(=O)N[C@@H](CCCCN)C(=O)N[C@@H](Cc1c[nH]c2ccccc12)C(=O)N[C@@H](Cc1ccc(O)cc1)C(=O)N[C@@H](CCCCN)C(=O)N[C@@H](C)C(=O)N[C@@H](Cc1c[nH]c2ccccc12)C(=O)N[C@@H](CC(N)=O)C(=O)N[C@@H](CCCCN)C(=O)N[C@@H](CCCCN)C(=O)N[C@@H](Cc1c[nH]c2ccccc12)C(=O)N[C@@H](CCCN=C(N)N)C(=O)N[C@@H](CCCCN)C(=O)N[C@@H](Cc1ccc(O)cc1)C(N)=O [KRFIKWYKAWNKKWRKY]
- MIC [13]: 2 µM (≈ 4.86 µg/mL)
- MIC [14]: 8 µM (≈ 19.4 µg/mL)
- MIC [15]: 2 µM (≈ 4.86 µg/mL)
- MIC [16]: 2 µM (≈ 4.86 µg/mL)
- MIC [17]: 2 µM (≈ 4.86 µg/mL)
- MIC [18]: 4 µM and 8 µM
- MIC [19]: 4 µM (≈ 9.72 µg/mL)
- MIC [20]: 4 µM (≈ 9.72 µg/mL)
- MIC [21]: 8 µM (≈ 19.4 µg/mL)
- MIC [22]: 4 µM (≈ 9.72 µg/mL)
- MIC [23]: 2 µM (≈ 4.86 µg/mL)

Structure (SMILES): CC[C@H](C)[C@H](NC(=O)[C@H](CCCCN)NC(=O)[C@H](CCCCN)NC(=O)[C@@H](NC(=O)[C@H](C)NC(=O)[C@H](CCC(=O)O)NC(=O)[C@H](Cc1cnc[nH]1)NC(=O)[C@@H](NC(=O)CNC(=O)[C@H](CCC(N)=O)NC(=O)[C@H](Cc1ccccc1)NC(=O)[C@@H](NC(=O)[C@H](CCCCN)NC(=O)[C@H](CCCCN)NC(=O)[C@H](CC(C)C)NC(=O)[C@H](C)NC(=O)[C@H](CC(N)=O)NC(=O)[C@@H](N)CC(C)C)C(C)C)[C@@H](C)CC)[C@@H](C)CC)C(N)=O [LNALKKVFQGIHEAIKKI]
- MIC [2]: 4 µM (≈ 8.2 µg/mL)
- MIC [24]: 16 µM (≈ 32.8 µg/mL)
- MIC [25]: 2 µM (≈ 4.1 µg/mL)
- MIC [3]: 4 µM (≈ 8.2 µg/mL)
- MIC [16]: 4 µM (≈ 8.2 µg/mL)
- MIC [26]: 4 µM (≈ 8.2 µg/mL)
- MIC [27]: 4 µM (≈ 8.2 µg/mL)
- MIC [28]: 8 µM (≈ 16.4 µg/mL)
- MIC [29]: 4 µM (≈ 8.2 µg/mL)
- MIC [30]: 16 µM (≈ 32.8 µg/mL)
- MIC [23]: 4 µM (≈ 8.2 µg/mL)
- MIC [31]: 8 µM (≈ 16.4 µg/mL)
- MIC [32]: 2 µM (≈ 4.1 µg/mL)
- MIC [5]: 2 µM (≈ 4.1 µg/mL)

Structure (SMILES): NC(N)=NCCC[C@H](NC(=O)[C@H](CCCN=C(N)N)NC(=O)[C@H](CCCN=C(N)N)NC(=O)[C@@H](N)CCCN=C(N)N)C(=O)N[C@@H](Cc1c[nH]c2ccccc12)C(=O)N[C@@H](Cc1c[nH]c2ccccc12)C(=O)N[C@@H](Cc1c[nH]c2ccccc12)C(=O)N[C@@H](Cc1c[nH]c2ccccc12)C(=O)N[C@@H](Cc1c[nH]c2ccccc12)C(=O)O [RRRRWWWWW]
- MIC [33]: 10.2 µM (≈ 16 µg/mL)
- MIC [5]: 20.3 µM (≈ 32 µg/mL)

Structure (SMILES): CC(C)[C@H](N)C(=O)N[C@@H](Cc1c[nH]c2ccccc12)C(=O)N[C@@H](CC(N)=O)C(=O)N[C@@H](CCC(N)=O)C(=O)N1CCC[C@H]1C(=O)N[C@H](C(=O)N[C@@H](CCCN=C(N)N)C(=O)NCC(=O)N[C@@H](Cc1ccccc1)C(=O)N[C@@H](CCCCN)C(=O)N[C@H](C(=O)N[C@@H](Cc1ccc(O)cc1)C(=O)N[C@@H](CCC(=O)O)C(=O)O)C(C)C)C(C)C [VWNQPVRGFKVYE]
- MIC [34]: ≥ 50 µM
- MIC [35]: ≥ 50 µM
- MIC [36]: ≥ 50 µM
- MIC [37]: ≥ 50 µM
- MIC [38]: ≥ 50 µM
- MIC [39]: ≥ 50 µM
